The values that follow are results of earlier work, collected in patent US6423847B1, “Synthesis and clinical uses of D,α-tocopherol nicotinate compounds” (Chronorx, LLC, priority 1999, dated 2002).

For data set [1] the following is noted: laboratory mice.
For data set [2], the system named is exogenous glucose utilization by the heart. As to conditions: normal volunteers, 18F-fluorodeoxyglucose PET.
Data set [3] deals with liver NAD+; poly(ADP-ribose).
The subject of data set [4] is human aortic endothelial cells. As to conditions: human aortic endothelial cells pre-incubated with vitamin E, oxidative stress; increased from 37%.
Data set [5] relates to glutathione peroxidase (GSHPx). The conditions noted are these: following supplementation with DAT.
The test system of data set [6] is malonyldialdehyde and superoxide anion levels. As to conditions: 400 mg once a day, orally for 4 weeks.

Each structure is given as a SMILES string. Where two headings read alike, the source gives them in different places.

In the case of `O=C(O)c1cccnc1` [Nicotinic acid, nicotinic acid], the figures for the “increase in Zn+2 absorption” value in data set [1] (fasting states) and in data set [1] (postprandial conditions) were 38.9% and 70.9%, respectively. Moreover, in data set [2], the “increase in exogenous glucose utilization by the heart” value is reported as “two- to three-fold increase”.

As for `NC(=O)c1cccnc1` [nicotinamide], the “liver polyADP-ribose” value in data set [3] (above control groups) is “significantly elevates”. The “liver NAD+” value in data set [3] (at 1000 mg/kg) is “elevations”.

`Cc1c(C)c2c(c(C)c1O)CC[C@@](C)(CCC[C@H](C)CCC[C@H](C)CCCC(C)C)O2` [vitamin E, D,α-tocopherol]: the cell viability in data set [4] was 85%. Moreover, in data set [5], the “glutathione peroxidase (GSHPx) activities” value is recorded as “increase as much as twofold”. In data set [6], the malonyldialdehyde levels entry is on record as “significantly reduces” and the superoxide anion levels entry was “significantly reduces”.
